The values below come from patent US20240384226A1, “RHODOPSEUDOMONAS PALUSTRIS TIE-1 STRAINS AND METHODS FOR BIOPLASTIC PRODUCTION” (Washington University, priority 2023, published 2024).

The test system of the assay is TIE-1. Put plainly: minimum inhibitory concentration (MIC) of antibiotics for TIE-1. It counts as cell-based, Rhodopseudomonas palustris TIE-1. Conditions: resistance of TIE-1 to selection antibiotics; for MIC: Rhodopseudomonas palustris.

Values after ≈ are worked out from the molar mass of the structure shown.

`O=C(N[C@H](CO)[C@H](O)c1ccc([N+](=O)[O-])cc1)C(Cl)Cl` [chloramphenicol] came in with an MIC of 100 µg/mL (≈ 309 µM).
For the compound `NC[C@H]1O[C@H](O[C@H]2[C@H](O)[C@@H](O[C@H]3O[C@H](CO)[C@@H](O)[C@H](N)[C@H]3O)[C@H](N)C[C@@H]2N)[C@H](O)[C@@H](O)[C@@H]1O` [kanamycin], the MIC stood at 50 µg/mL (≈ 103 µM).
Turning to gentamicin, the “minimum inhibitory concentration (MIC)” value came out at 200 µg/mL.
